Data reported in US8273774B2, “Phenoxypyridinylamide compounds” (AstraZeneca AB, priority 2008, dated 2012).

Target: recombinant Human Phosphodiesterase B2 (PDE4B2) (Homo sapiens, UniProt Q07343)
Experiment: Human Phosphodiesterase B2 Radiometric Assay
Format: biochemical
Settings: 0.1 μg/mL recombinant PDE4B2; preincubated at 30 C for 30 min; [3H]cyclic AMP 8 nM, stopped after 20 min; yttrium silicate SPA beads; read-out: PDE4B2 pIC50 (converted)
Summary of the method: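 SPA read-out: product 5′AMP binds yttrium silicate beads (added with 18 mM ZnSO4 after 20 min) in preference to [3H]cAMP substrate, given at 8 nM final.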

Chain of recombinant Human Phosphodiesterase B2 (PDE4B2) (Q07343 1-564 isoform Q07343-2): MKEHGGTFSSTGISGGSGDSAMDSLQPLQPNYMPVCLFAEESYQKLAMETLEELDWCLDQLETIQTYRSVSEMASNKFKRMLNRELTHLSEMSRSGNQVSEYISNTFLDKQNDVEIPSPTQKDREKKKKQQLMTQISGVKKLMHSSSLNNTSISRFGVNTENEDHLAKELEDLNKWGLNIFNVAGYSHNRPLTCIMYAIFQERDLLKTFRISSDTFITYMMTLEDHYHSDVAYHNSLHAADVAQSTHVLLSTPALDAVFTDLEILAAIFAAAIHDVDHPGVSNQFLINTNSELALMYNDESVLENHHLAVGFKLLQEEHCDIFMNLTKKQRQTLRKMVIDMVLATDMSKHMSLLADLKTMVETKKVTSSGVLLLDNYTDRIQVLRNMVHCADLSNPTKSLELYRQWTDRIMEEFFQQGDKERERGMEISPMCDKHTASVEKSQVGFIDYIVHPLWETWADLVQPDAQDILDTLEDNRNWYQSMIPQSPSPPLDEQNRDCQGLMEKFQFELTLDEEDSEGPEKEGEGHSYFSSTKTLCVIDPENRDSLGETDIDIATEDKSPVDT

IC50 [nM]	SMILES
0.0501	CN(C)Cc1cc(O)ccc1-c1cccc(Oc2ncc(F)cc2C(=O)N[C@H]2CC[C@@H](NC(=O)c3cn4cc(F)ccc4n3)CC2)c1 [Example 12, N-((1s,4s)-4-(2-(2′-((dimethylamino)methyl)-4′-hydroxybiphenyl-3-yloxy)-5-fluoronicotinamido)cyclohexyl)-6-fluoroimidazo[1,2-a]pyridine-2-carboxamide]
0.0316	Cc1cccc2nc(C(=O)N[C@H]3CC[C@@H](NC(=O)c4cc(F)cnc4Oc4cccc(-c5ccc(CCCNC(C)C)cc5)c4)CC3)cn12 [Example 116, N-((1s,4s)-4-(5-fluoro-2-(4′-(3-(isopropylamino)propyl)biphenyl-3-yloxy)nicotinamido)cyclohexyl)-5-methylimidazo[1,2-a]pyridine-2-carboxamide]
0.0501	O=C(N[C@H]1CC[C@@H](NC(=O)c2cc(F)cnc2Oc2cccc(-c3ccc(CN4CCSCC4)cc3CN3CCOCC3)c2)CC1)c1csc(CO)n1 [Example 170, N-((1s,4s)-4-(5-Fluoro-2-(2′-(morpholinomethyl)-4′-(thiomorpholinomethyl)biphenyl-3-yloxy)nicotinamido)cyclohexyl)-2-(hydroxymethyl)thiazole-4-carboxamide]
0.0251	Cc1ccc(O)c(C(=O)N[C@H]2CC[C@@H](NC(=O)c3cc(F)cnc3Oc3cccc(-c4ccc(O)cc4CN4CCOCC4)c3)CC2)c1 [Example 28, 5-fluoro-2-(4′-hydroxy-2′-(morpholinomethyl)biphenyl-3-yloxy)-N-((1s,4s)-4-(2-hydroxy-5-methylbenzamido)cyclohexyl)nicotinamide]
0.0158	Cc1cccc2nc(C(=O)N[C@H]3CC[C@@H](NC(=O)c4cc(F)cnc4Oc4cccc(-c5ccc(O)cc5CN5CCOCC5)c4)CC3)cn12 [Example 18, N-((1s,4s)-4-(5-fluoro-2-(4′-hydroxy-2′-(morpholinomethyl)biphenyl-3-yloxy)nicotinamido)cyclohexyl)-5-methylimidazo[1,2-a]pyridine-2-carboxamide]
0.0316	C[C@@H]1CN(CCCc2ccc(-c3cccc(Oc4ncc(F)cc4C(=O)N[C@H]4CC[C@@H](NC(=O)c5cc6n(n5)CCC6)CC4)c3)cc2)C[C@H](C)N1 [Example 140, N-((1s,4s)-4-(2-(4′-(3-((3S,5R)-3,5-dimethylpiperazin-1-yl)propyl)biphenyl-3-yloxy)-5-fluoronicotinamido)cyclohexyl)-5,6-dihydro-4H-pyrrolo[1,2-b]pyrazole-2-carboxamide]
0.0251	Cc1cc(C)n2ncc(C(=O)N[C@H]3CC[C@@H](NC(=O)c4cc(F)cnc4Oc4cccc(-c5ccc(CN6C[C@@H](C)N[C@@H](C)C6)cc5CN5CCSCC5)c4)CC3)c2n1 [Example 193, N-((1s,4s)-4-(2-(4′-(((3S,5R)-3,5-dimethylpiperazin-1-yl)methyl)-2′-(thiomorpholinomethyl)biphenyl-3-yloxy)-5-fluoronicotinamido)cyclohexyl)-5,7-dimethylpyrazolo[1,5-a]pyrimidine-3-carboxamide]
0.631	CN1CCCN(Cc2cc(O)ccc2-c2cccc(Oc3ncc(F)cc3C(=O)N[C@H]3CC[C@@H](NC(=O)c4ccc5ccccc5n4)CC3)c2)CC1 [Example 27, N-((1s,4s)-4-(5-fluoro-2-(4′-hydroxy-2′-((4-methyl-1,4-diazepan-1-yl)methyl)biphenyl-3-yloxy)nicotinamido)cyclohexyl)quinoline-2-carboxamide]
0.0631	Cc1nc(C(=O)N[C@H]2CC[C@@H](NC(=O)c3cc(F)cnc3Oc3cccc(-c4ccc(CCCN5CCCC5)cc4)c3)CC2)cs1 [Example 73, N-((1s,4s)-4-(5-fluoro-2-(4′-(3-(pyrrolidin-1-yl)propyl)biphenyl-3-yloxy)nicotinamido)cyclohexyl)-2-methylthiazole-4-carboxamide]
0.0316	Cc1nc(C(=O)N[C@H]2CC[C@@H](NC(=O)c3cc(F)cnc3Oc3cccc(-c4ccc(CCN5C[C@@H](C)N[C@@H](C)C5)cc4)c3)CC2)cs1 [Example 86, N-((1s,4s)-4-(2-(4′-(2-((3S,5R)-3,5-dimethylpiperazin-1-yl)ethyl)biphenyl-3-yloxy)-5-fluoronicotinamido)cyclohexyl)-2-methylthiazole-4-carboxamide]
0.0794	C[C@@H]1CN(CCCc2ccc(-c3cccc(Oc4ncc(F)cc4C(=O)N[C@H]4CC[C@@H](NC(=O)c5cc6ncccn6n5)CC4)c3)cc2)C[C@H](C)N1 [Example 143, N-((1s,4s)-4-(2-(4′-(3-((3S,5R)-3,5-dimethylpiperazin-1-yl)propyl)biphenyl-3-yloxy)-5-fluoronicotinamido)cyclohexyl)pyrazolo[1,5-a]pyrimidine-2-carboxamide]
0.0398	Cc1csc(C(=O)N[C@H]2CC[C@@H](NC(=O)c3cc(F)cnc3Oc3cccc(-c4ccc(CCCN5CCNCC5)cc4)c3)CC2)n1 [Example 148, N-((1s,4s)-4-(5-fluoro-2-(4′-(3-(piperazin-1-yl)propyl)biphenyl-3-yloxy)nicotinamido)cyclohexyl)-4-methylthiazole-2-carboxamide]
0.0501	C[C@@H]1CN(CCCc2ccc(-c3cccc(Oc4ncc(F)cc4C(=O)N[C@H]4CC[C@@H](NC(=O)c5cc6n(n5)CCCO6)CC4)c3)cc2)C[C@H](C)N1 [Example 168, N-((1s,4s)-4-(2-(4′-(3-((3S,5R)-3,5-Dimethylpiperazin-1-yl)propyl)biphenyl-3-yloxy)-5-fluoronicotinamido)cyclohexyl)-6,7-dihydro-5H-pyrazolo[5,1-b][1,3]oxazine-2-carboxamide]
0.126	C[C@@H]1CN(Cc2ccc(-c3cccc(Oc4ncc(F)cc4C(=O)N[C@H]4CC[C@@H](NC(=O)c5cc6ccccn6n5)CC4)c3)cc2O)C[C@H](C)N1 [Example 97, N-((1s,4s)-4-(2-(4′-(((3S,5R)-3,5-dimethylpiperazin-1-yl)methyl)-3′-hydroxybiphenyl-3-yloxy)-5-fluoronicotinamido)cyclohexyl)pyrazolo[1,5-a]pyridine-2-carboxamide]
0.1	O=C(N[C@H]1CC[C@@H](NC(=O)c2cc(F)cnc2Oc2cccc(-c3ccc(O)cc3CN3CCOCC3)c2)CC1)c1csc(C(F)(F)F)n1 [Example 36, N-((1s,4s)-4-(5-fluoro-2-(4′-hydroxy-2′-(morpholinomethyl)biphenyl-3-yloxy)nicotinamido)cyclohexyl)-2-(trifluoromethyl)thiazole-4-carboxamide]
0.0398	CC(C)c1nc(C(=O)N[C@H]2CC[C@@H](NC(=O)c3cc(F)cnc3Oc3cccc(-c4ccc(CN5C[C@@H](C)N[C@@H](C)C5)cc4CN4CCOCC4)c3)CC2)cs1 [Example 190, N-((1s,4s)-4-(2-(4′-(((3S,5R)-3,5-dimethylpiperazin-1-yl)methyl)-2′-(morpholinomethyl)biphenyl-3-yloxy)-5-fluoronicotinamido)cyclohexyl)-2-isopropylthiazole-4-carboxamide]
0.251	CCCN1CCN(Cc2ccc(-c3cccc(Oc4ncc(F)cc4C(=O)N[C@H]4CC[C@@H](NC(=O)c5cc(C)n(C)n5)CC4)c3)c(CN3CCOCC3)c2)CC1 [Example 181, N-((1s,4s)-4-(1,5-Dimethyl-1H-pyrazole-3-carboxamido)cyclohexyl)-5-fluoro-2-(2′-(morpholinomethyl)-4′-((4-propylpiperazin-1-yl)methyl)biphenyl-3-yloxy)nicotinamide]
0.631	Cc1cccc2nc(CN[C@H]3CC[C@@H](NC(=O)c4cc(F)cnc4Oc4cccc(-c5ccc(O)cc5CN5CCOCC5)c4)CC3)cn12 [Example 8, 5-fluoro-2-(4′-hydroxy-2′-(morpholinomethyl)biphenyl-3-yloxy)-N-((1s,4s)-4-((5-methylimidazo[1,2-a]pyridin-2-yl)methylamino)cyclohexyl)nicotinamide]
0.0501	Cc1nc(C(=O)N[C@H]2CC[C@@H](NC(=O)c3cc(F)cnc3Oc3cccc(-c4ccc(CCN5CCNCC5)cc4)c3)CC2)cs1 [Example 177, N-((1s,4s)-4-(5-Fluoro-2-(4′-(2-(piperazin-1-yl)ethyl)biphenyl-3-yloxy)nicotinamido)cyclohexyl)-2-methylthiazole-4-carboxamide]
0.501	O=C(N[C@H]1CC[C@@H](NC(=O)c2cc(F)cnc2Oc2cccc(-c3ccc(O)cc3CN3CCOCC3)c2)CC1)c1ccc(O)cc1 [Example 31, 5-fluoro-2-(4′-hydroxy-2′-(morpholinomethyl)biphenyl-3-yloxy)-N-((1s,4s)-4-(4-hydroxybenzamido)cyclohexyl)nicotinamide]
0.0794	Cc1cccc2nc(C(=O)N[C@H]3CC[C@@H](NC(=O)c4cc(F)cnc4Oc4cccc(-c5ccc(C(=O)O)cc5CN5CCOCC5)c4)CC3)cn12 [Example 59, 3′-(5-fluoro-3-((1s,4s)-4-(5-methylimidazo[1,2-a]pyridine-2-carboxamido)cyclohexylcarbamoyl)pyridin-2-yloxy)-2-(morpholinomethyl)biphenyl-4-carboxylic acid]
0.0398	Cc1cc(C(=O)N[C@H]2CC[C@@H](NC(=O)c3cc(F)cnc3Oc3cccc(-c4ccc(CCCN5CCN(C)CC5)cc4)c3)CC2)nn1C [Example 80, N-((1s,4s)-4-(1,5-dimethyl-1H-pyrazole-3-carboxamido)cyclohexyl)-5-fluoro-2-(4′-(3-(4-methylpiperazin-1-yl)propyl)biphenyl-3-yloxy)nicotinamide]
0.0501	C[C@@H]1CN(Cc2ccc(-c3cccc(Oc4ncc(F)cc4C(=O)N[C@H]4CC[C@@H](NC(=O)c5cc6n(n5)CCCC6)CC4)c3)cc2)C[C@H](C)N1 [Example 113, N-((1s,4s)-4-(2-(4′-(((3S,5R)-3,5-dimethylpiperazin-1-yl)methyl)biphenyl-3-yloxy)-5-fluoronicotinamido)cyclohexyl)-4,5,6,7-tetrahydropyrazolo[1,5-a]pyridine-2-carboxamide]
0.1	Cc1nc(C(=O)N[C@H]2CC[C@@H](NC(=O)c3cc(F)cnc3Oc3cccc(-c4ccc(O)cc4CN4C[C@@H](C)O[C@@H](C)C4)c3)CC2)cs1 [Example 24, N-((1s,4s)-4-(2-(2′-(((2S,6R)-2,6-dimethylmorpholino)methyl)-4′-hydroxybiphenyl-3-yloxy)-5-fluoronicotinamido)cyclohexyl)-2-methylthiazole-4-carboxamide]
